Data: ChEMBL document CHEMBL1255371, “Clonal spread of highly beta-lactam-resistant Streptococcus pneumoniae isolates in Taiwan” (2008)
In brackets after ≈: the same amount, converted by molar mass.

How the values were obtained:
Type in all cases: functional
Streptococcus pneumoniae [1] = assay: Antimicrobial activity against beta-lactam resistant Streptococcus pneumoniae clinical isolate by broth dilution method
Streptococcus pneumoniae [2] = assay: Antimicrobial activity against Streptococcus pneumoniae isolated from patient with bacterial infection by broth dilution method
Streptococcus pneumoniae [3] = assay: Antimicrobial activity against Streptococcus pneumoniae isolated from cerebrospinal fluid of patient with bacterial infection by broth dilution method
Streptococcus pneumoniae [4] = assay: Antimicrobial activity against Streptococcus pneumoniae in meningitis patients by broth dilution method
Streptococcus pneumoniae [5] = assay: Antimicrobial activity against Streptococcus pneumoniae in non-meningitis patients by broth dilution method
Streptococcus pneumoniae [6] = assay: Antimicrobial activity against Streptococcus pneumoniae isolated from meningitis patient assessed as percent susceptible isolates by CLSI method
Streptococcus pneumoniae [7] = assay: Antimicrobial activity against Streptococcus pneumoniae isolated from meningitis patient assessed as percent resistant isolates by CLSI method
Streptococcus pneumoniae [8] = assay: Antimicrobial activity against Streptococcus pneumoniae isolated from non-meningitis patient assessed as percent susceptible isolates by CLSI method
Streptococcus pneumoniae [9] = assay: Antimicrobial activity against Streptococcus pneumoniae isolated from non-meningitis patient assessed as percent resistant isolates by CLSI method

| Structure (SMILES) | MIC50 (Streptococcus pneumoniae [1]) | MIC90 (Streptococcus pneumoniae [1]) | MIC (Streptococcus pneumoniae [2]) | MIC (Streptococcus pneumoniae [3]) | MIC (Streptococcus pneumoniae [4]) | MIC (Streptococcus pneumoniae [5]) | Activity (Streptococcus pneumoniae [6]) | Activity (Streptococcus pneumoniae [7]) | Activity (Streptococcus pneumoniae [8]) | Activity (Streptococcus pneumoniae [9]) | MIC (Streptococcus pneumoniae [1]) |
| --- | --- | --- | --- | --- | --- | --- | --- | --- | --- | --- | --- |
| CCCCCCCCCC(=O)N[C@@H](Cc1c[nH]c2ccccc12)C(=O)N[C@H](CC(N)=O)C(=O)N[C@@H](CC(=O)O)C(=O)N[C@@H]1C(=O)NCC(=O)N[C@@H](CCCN)C(=O)N[C@@H](CC(=O)O)C(=O)N[C@H](C)C(=O)N[C@@H](CC(=O)O)C(=O)NCC(=O)N[C@H](CO)C(=O)N[C@@H]([C@H](C)CC(=O)O)C(=O)N[C@@H](CC(=O)c2ccccc2N)C(=O)O[C@@H]1C | 0.06 µg/mL (≈ 0.037 µM) | 0.06 µg/mL (≈ 0.037 µM) |  |  |  |  |  |  |  |  |  |
| CO/N=C(\C(=O)N[C@@H]1C(=O)N2C(C(=O)O)=C(COC(C)=O)CS[C@H]12)c1csc(N)n1 [CEFOTAXIME] | 0.5 µg/mL (≈ 1.1 µM) | 1 µg/mL (≈ 2.2 µM) | ≥ 2 µg/mL | 1 µg/mL (≈ 2.2 µM) | 1 µg/mL (≈ 2.2 µM) | < 2 µg/mL | 58.5% | 6.9% | 93.1% | 1.4% |  |
| Nc1nc(/C(=N/O)C(=O)N[C@@H]2C(=O)N3C(C(=O)O)=C(/C=C4\CCN([C@@H]5CCNC5)C4=O)CS[C@H]23)ns1 [CEFTOBIPROLE] | 0.25 µg/mL (≈ 0.468 µM) | 0.5 µg/mL (≈ 0.935 µM) |  |  |  |  |  |  |  |  |  |
| CC[C@H]1OC(=O)[C@H](C)[C@@H](O[C@H]2C[C@@](C)(OC)[C@@H](O)[C@H](C)O2)[C@H](C)[C@@H](O[C@@H]2O[C@H](C)C[C@H](N(C)C)[C@H]2O)[C@](C)(O)C[C@@H](C)C(=O)[C@H](C)[C@@H](O)[C@]1(C)O [ERYTHROMYCIN] | > 32 µg/mL | > 32 µg/mL |  |  |  |  | 6.9% | 90.9% |  |  |  |
| CO/N=C1\CN(c2nc3c(cc2F)c(=O)c(C(=O)O)cn3C2CC2)CC1CN (stereo unspecified) [GEMIFLOXACIN] | ≤ 0.03 µg/mL | ≤ 0.03 µg/mL |  |  |  |  | 98.9% | 1.1% |  |  | ≤ 0.03 µg/mL |
| C[C@H]1COc2c(N3CCN(C)CC3)c(F)cc3c(=O)c(C(=O)O)cn1c23.C[C@H]1COc2c(N3CCN(C)CC3)c(F)cc3c(=O)c(C(=O)O)cn1c23.O [LEVOFLOXACIN] | 1 µg/mL | 1 µg/mL |  |  |  |  | 98.1% | 1.9% |  |  |  |
| CC1(C)S[C@@H]2[C@H](NC(=O)Cc3ccccc3)C(=O)N2[C@H]1C(=O)O [PENICILLIN G] | 1 µg/mL (≈ 2.99 µM) | 2 µg/mL (≈ 5.98 µM) | ≥ 0.1 µg/mL |  | ≥ 0.1 µg/mL | ≥ 4 µg/mL | 16.8% | 44.5% |  |  |  |
| CN(C)c1cc(NC(=O)CNC(C)(C)C)c(O)c2c1C[C@H]1C[C@H]3[C@H](N(C)C)C(O)=C(C(N)=O)C(=O)[C@@]3(O)C(O)=C1C2=O [TIGECYCLINE] | ≤ 0.015 µg/mL | 0.03 µg/mL (≈ 0.0512 µM) |  |  |  |  |  |  |  |  | ≤ 0.015 µg/mL |
| CN[C@H](CC(C)C)C(=O)N[C@H]1C(=O)N[C@@H](CC(N)=O)C(=O)N[C@H]2C(=O)N[C@H]3C(=O)N[C@H](C(=O)N[C@H](C(=O)O)c4cc(O)cc(O)c4-c4cc3ccc4O)[C@H](O)c3ccc(c(Cl)c3)Oc3cc2cc(c3O[C@@H]2O[C@H](CO)[C@@H](O)[C@H](O)[C@H]2O[C@H]2C[C@](C)(N)[C@H](O)[C@H](C)O2)Oc2ccc(cc2Cl)[C@H]1O [VANCOMYCIN] | 0.25 µg/mL (≈ 0.173 µM) | 0.5 µg/mL (≈ 0.345 µM) |  |  |  |  | 100% | 0% |  |  |  |
